Test results reported in publication PMC7828231, “Delphinidin Increases the Sensitivity of Ovarian Cancer Cell Lines to 3-bromopyruvate” (International Journal of Molecular Sciences, 2021).
Like-named read-outs stand apart in the source and are kept apart here.

What was measured:
Assay in all cases: Cytotoxicity, Neutral Red survival assay
Format in all cases: cell-based, human
[1] = tested on: PEO1 cells; conditions: Homo sapiens
Experimental: (§1) SKOV3 and PEO1 cells were seeded in a clear 96-well plate at a density of 1 × 10^4 cells/well in 100-µL culture medium. MRC-5 cells were seeded at a density of 7.5 × 10^3/well and allowed to attach for 24 h at 37 °C. After incubation, the cells were treated with delphinidin chloride in a concentration range of 10–100 µM and 3-BP at concentrations between 5–25 µM for PEO1 and 10–50 µM for MRC-5 and SKOV3. Nontreated cells were used as a control. Stock solutions of tested substances were prepared in DMSO and their working solutions in culture media. The DMSO concentration was adjusted to 0.2% in all samples, which had no significant effect on the treated cells. After 24-h exposure time, the medium was removed and replaced with 100 µL of […] neutral red solution, and the cells were incubated at 37 °C for 1 h. Then, the cells were washed with PBS; fixed with 100 µL/well of 50% ethanol, 49% H2O and 1% glacial acetic acid and shaken (700 rpm) at room temperature for 20 min. Absorbance was measured at 540 nm against 620 nm.

[2] = tested on: SKOV3 cells; conditions: Homo sapiens
Experimental: as §1

[3] = tested on: MRC-5 fibroblasts; conditions: Homo sapiens, MRC5, read-out: IC50 of cell survival (extrapolated)
Experimental: as §1

[4] = PEO1, PEO1, extrapolated from data obtained in the concentration range of 1–100 µM, read-out: IC50 of cell survival (extrapolated)
[5] = SK-OV-3, SKOV3, extrapolated from data obtained in the concentration range of 1–100 µM, read-out: IC50 of cell survival (extrapolated)
[6] = PEO1, 24 h, PEO1, 24-h exposure, Neutral Red, ND = no reduction of survival in the concentration range studied, read-out: IC50 of cell survival

| Structure (SMILES) | IC50 [1, 4] [µM] | IC50 [2, 5] [µM] | IC50 [1, 6] [µM] | also measured |
| --- | --- | --- | --- | --- |
| O=c1c(-c2ccc(O)cc2)coc2cc(O)ccc12 [Daidzein] | > 100 | > 100 | – | – |
| COc1cc(-c2[o+]c3cc(O)cc(O)c3cc2O)cc(OC)c1O [Malvidin chloride] | – | – | – | IC50 [3]: > 100 µM; IC50 ([1]; PEO1, read-out: IC50 of cell survival (extrapolated)): > 100 µM; IC50 ([2]; SK-OV-3, 24 h, read-out: IC50 of cell survival): 90 µM |
| COc1c(O)cc2oc(-c3ccc(O)cc3)cc(=O)c2c1O [Hispidulin] | – | – | – | IC50 ([1]; PEO1, 24 h, read-out: IC50 of cell survival): 181 µM; IC50 ([2]; SK-OV-3, read-out: IC50 of cell survival (extrapolated)): > 100 µM |
| O=c1c(-c2ccc(O)cc2)coc2cc(O)cc(O)c12 [Genistein] | > 100 | > 100 | – | – |
| O=c1c(O)c(-c2cc(O)c(O)c(O)c2)oc2cc(O)cc(O)c12 [Myricetin] | – | – | 196 | – |
| Oc1cc(O)c2cc(O)c(-c3ccc(O)c(O)c3)[o+]c2c1 [Cyanidin chloride] | – | – | 107 | – |
